Assay results reported in patent publication US9328099B2, “Cyanomethylpyrazole carboxamides as janus kinase inhibitors” (Merck Sharp & Dohme Corp., priority 2011, dated 2016).
pIC50: −log10 of the molar value. Where two headings read alike, the source gives them in different places.

Tests used:
[1] = target: JAK1 (Homo sapiens (Human), UniProt P23458); assay: Jak Biochemical HTRF Assay, JAK1; conditions: read-out: JAK1 IC50
Text: (§1) Jak Biochemical HTRF Assay Protocol
(§2) Subsequent reagent additions employed an Agilent Bravo.

[2] = target: JAK2 (Homo sapiens (Human), UniProt O60674); assay: Jak Biochemical HTRF Assay, JAK2
Chain of JAK2 (O60674 849-1124): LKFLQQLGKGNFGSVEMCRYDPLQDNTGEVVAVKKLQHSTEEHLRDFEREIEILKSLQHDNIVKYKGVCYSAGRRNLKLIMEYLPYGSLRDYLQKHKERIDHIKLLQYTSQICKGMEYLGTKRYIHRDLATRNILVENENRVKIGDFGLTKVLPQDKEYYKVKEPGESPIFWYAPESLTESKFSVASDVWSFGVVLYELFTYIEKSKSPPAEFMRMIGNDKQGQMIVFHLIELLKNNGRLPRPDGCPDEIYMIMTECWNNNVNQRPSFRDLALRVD
Text: as §1, §2

[3] = HTRF biochemical assay, GST-tagged catalytic domain, top concentration tested […]

Chain of JAK1 (P23458 875-1153): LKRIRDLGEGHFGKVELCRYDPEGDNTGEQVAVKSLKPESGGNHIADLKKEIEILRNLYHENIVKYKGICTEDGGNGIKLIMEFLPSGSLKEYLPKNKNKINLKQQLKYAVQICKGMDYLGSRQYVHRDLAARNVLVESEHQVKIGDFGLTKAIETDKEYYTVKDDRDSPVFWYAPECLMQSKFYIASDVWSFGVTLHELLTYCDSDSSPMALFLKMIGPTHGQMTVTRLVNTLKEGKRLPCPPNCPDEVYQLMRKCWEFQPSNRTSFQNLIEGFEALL

Row | SMILES | pIC50 [1, 3] | pIC50 [2, 3] | pIC50 [1] | pIC50 [2]
1 | CC(OC(=O)N1CCC(CC#N)(n2cc(C(N)=O)c(Nc3ccc(F)cc3)n2)CC1)C(F)(F)F (stereo not shown) [Example 30-3, 1,1,1-trifluoropropan-2-yl 4-(4-carbamoyl-3-(4-fluorophenylamino)-1H-pyrazol-1-yl)-4-(cyanomethyl)piperidine-1-carboxylate] | 9.10 | 7.55 |  | 
2 | N#CCC1(n2cc(C(N)=O)c(Nc3ccc(F)cc3)n2)CCN(C(=O)OC2CCC2)CC1 [Example 30-4, cyclobutyl 4-(4-carbamoyl-3-(4-fluorophenylamino)-1H-pyrazol-1-yl)-4-(cyanomethyl)piperidine-1-carboxylate] | 9.05 | 7.48 |  | 
3 | N#CCC1(n2cc(C(N)=O)c(Nc3ccc(F)cc3)n2)CCN(C(=O)OCC2CCC2)CC1 [Example 30-5, cyclobutylmethyl 4-(4-carbamoyl-3-(4-fluorophenylamino)-1H-pyrazol-1-yl)-4-(cyanomethyl)piperidine-1-carboxylate] | 8.40 | 6.92 |  | 
4 | N#CCC1(n2cc(C(N)=O)c(Nc3ccc(F)cc3)n2)CCN(C(=O)OCC2CC2(F)F)CC1 (stereo not shown) [Example 30-6, (2,2-difluorocyclopropyl)methyl 4-(4-carbamoyl-3-(4-fluorophenylamino)-1H-pyrazol-1-yl)-4-(cyanomethyl)piperidine-1-carboxylate] | 9.05 | 7.42 |  | 
5 | N#CCC1(n2cc(C(N)=O)c(Nc3ccc(F)cc3)n2)CCN(C(=O)OCC(F)F)CC1 [Example 30-7, 2,2-difluoroethyl 4-(4-carbamoyl-3-(4-fluorophenylamino)-1H-pyrazol-1-yl)-4-(cyanomethyl)piperidine-1-carboxylate] | 9.30 | 8.05 |  | 
6 | CC1(COC(=O)N2CCC(CC#N)(n3cc(C(N)=O)c(Nc4ccc(F)cc4)n3)CC2)CC1 [Example 30-8, (1-methylcyclopropyl)methyl 4-(4-carbamoyl-3-(4-fluorophenylamino)-1H-pyrazol-1-yl)-4-(cyanomethyl)piperidine-1-carboxylate] | 9.00 | 7.14 |  | 
7 | N#CCC1(n2cc(C(N)=O)c(Nc3ccc(F)cc3)n2)CCN(C(=O)OC(CF)CF)CC1 [Example 30-9, 1,3-difluoropropan-2-yl 4-(4-carbamoyl-3-(4-fluorophenylamino)-1H-pyrazol-1-yl)-4-(cyanomethyl)piperidine-1-carboxylate] | 9.52 | 8.30 |  | 
8 | C[Si](C)(C)COC(=O)N1CCC(CC#N)(n2cc(C(N)=O)c(Nc3ccc(F)cc3)n2)CC1 [Example 30-10, (trimethylsilyl)methyl 4-(4-carbamoyl-3-(4-fluorophenylamino)-1H-pyrazol-1-yl)-4-(cyanomethyl)piperidine-1-carboxylate] |  |  | 7.68 | 6.13
9 | N#CCC1(n2cc(C(N)=O)c(Nc3ccc(F)cc3)n2)CCN(C(=O)OCC(F)(F)CO)CC1 [Example 30-11, 2,2-difluoro-3-hydroxypropyl 4-(4-carbamoyl-3-(4-fluorophenylamino)-1H-pyrazol-1-yl)-4-(cyanomethyl)piperidine-1-carboxylate] | 9.70 | 7.96 |  | 
10 | N#CCC1(n2cc(C(N)=O)c(Nc3ccc(F)cc3)n2)CCN(C(=O)OCC2(O)CC2)CC1 [Example 30-13, (1-hydroxycyclopropyl)methyl 4-(4-carbamoyl-3-(4-fluorophenylamino)-1H-pyrazol-1-yl)-4-(cyanomethyl)piperidine-1-carboxylate] | 9.05 | 7.70 |  | 
11 | C[C@@H](OC(=O)N1CCC(CC#N)(n2cc(C(N)=O)c(Nc3ccc(F)cc3)n2)CC1)C(F)(F)F [Example 30-14, (R)-1,1,1-trifluoropropan-2-yl 4-(4-carbamoyl-3-(4-fluorophenylamino)-1H-pyrazol-1-yl)-4-(cyanomethyl)piperidine-1-carboxylate] | 8.70 | 7.52 |  | 
12 | N#CCC1(n2cc(C(N)=O)c(Nc3cncc(F)c3)n2)CCN(C(=O)OCC(F)F)CC1 [Example 30-15, 2,2-difluoroethyl 4-(4-carbamoyl-3-(5-fluoropyridin-3-ylamino)-1H-pyrazol-1-yl)-4-(cyanomethyl)piperidine-1-carboxylate] | 9.00 | 7.72 |  | 
13 | N#CCC1(n2cc(C(N)=O)c(Nc3ccnc(F)c3)n2)CCN(C(=O)OC2CCOCC2)CC1 [Example 30-17, tetrahydro-2H-pyran-4-yl 4-{4-carbamoyl-3-[(2-fluoropyridin-4-yl)amino]-1H-pyrazol-1-yl}-4-(cyanomethyl)piperidine-1-carboxylate] | 8.52 | 7.02 |  | 
14 | N#CCC1(n2cc(C(N)=O)c(Nc3ccc(F)cc3)n2)CCN(C(=O)OC2COC2)CC1 [Example 30-18, oxetan-3-yl 4-{4-carbamoyl-3-[(4-fluorophenyl)amino]-1H-pyrazol-1-yl}-4-(cyanomethyl)piperidine-1-carboxylate] | 8.70 | 7.36 |  | 
15 | N#CCC1(n2cc(C(N)=O)c(Nc3ccc(F)cc3)n2)CCN(C(=O)OCC2CC2)CC1 [Example 30-19, cyclopropylmethyl 4-{4-carbamoyl-3-[(4-fluorophenyl)amino]-1H-pyrazol-1-yl}-4-(cyanomethyl)piperidine-1-carboxylate] | 9.00 | 7.43 |  | 
16 | CC1(COC(=O)N2CCC(CC#N)(n3cc(C(N)=O)c(Nc4ccc(F)cc4)n3)CC2)COC1 [Example 30-20, (3-methyloxetan-3-yl)methyl 4-{4-carbamoyl-3-[(4-fluorophenyl)amino]-1H-pyrazol-1-yl}-4-(cyanomethyl)piperidine-1-carboxylate] | 8.10 | 6.62 |  | 
17 | N#CCC1(n2cc(C(N)=O)c(Nc3ccc(F)cc3)n2)CCN(C(=O)OCC2CCOCC2)CC1 [Example 30-21, tetrahydro-2H-pyran-4-ylmethyl 4-{4-carbamoyl-3-[(4-fluorophenyl)amino]-1H-pyrazol-1-yl}-4-(cyanomethyl)piperidine-1-carboxylate] | 8.22 | 6.84 |  | 
18 | N#CCC1(n2cc(C(N)=O)c(Nc3ccc(F)cc3)n2)CCN(C(=O)OCC2CCOC2)CC1 (stereo not shown) [Example 30-22, tetrahydrofuran-3-ylmethyl 4-{4-carbamoyl-3-[(4-fluorophenyl)amino]-1H-pyrazol-1-yl}-4-(cyanomethyl)piperidine-1-carboxylate] | 8.30 | 6.91 |  | 
19 | COCC(C)OC(=O)N1CCC(CC#N)(n2cc(C(N)=O)c(Nc3ccc(F)cc3)n2)CC1 (stereo not shown) [Example 30-23, 1-methoxypropan-2-yl 4-{4-carbamoyl-3-[(4-fluorophenyl)amino]-1H-pyrazol-1-yl}-4-(cyanomethyl)piperidine-1-carboxylate] | 8.70 | 7.40 |  | 
20 | COC(C)COC(=O)N1CCC(CC#N)(n2cc(C(N)=O)c(Nc3ccc(F)cc3)n2)CC1 (stereo not shown) [Example 30-24, 2-methoxypropyl 4-{4-carbamoyl-3-[(4-fluorophenyl)amino]-1H-pyrazol-1-yl}-4-(cyanomethyl)piperidine-1-carboxylate] | 8.40 | 7.02 |  | 
21 | N#CCC1(n2cc(C(N)=O)c(Nc3ccc(F)cc3)n2)CCN(C(=O)OC2CCCOC2)CC1 (stereo not shown) [Example 30-25, tetrahydro-2H-pyran-3-yl 4-{4-carbamoyl-3-[(4-fluorophenyl)amino]-1H-pyrazol-1-yl}-4-(cyanomethyl)piperidine-1-carboxylate] | 8.40 | 6.92 |  | 
22 | N#CCC1(n2cc(C(N)=O)c(Nc3ccnc(F)c3)n2)CCN(C(=O)OCC(F)F)CC1 [Example 30-27, 2,2-difluoroethyl 4-(4-carbamoyl-3-(2-fluoropyridin-4-ylamino)-1H-pyrazol-1-yl)-4-(cyanomethyl)piperidine-1-carboxylate] | 10.15 | 8.30 |  | 
23 | CC(C)COC(=O)N1CCC(CC#N)(n2cc(C(N)=O)c(Nc3ccccc3)n2)CC1 [Example 30-28, 2-methylpropyl 4-[4-carbamoyl-3-(phenylamino)-1H-pyrazol-1-yl]-4-(cyanomethyl)piperidine-1-carboxylate] | 8.52 | 6.99 |  | 
24 | CC(C)(C)COC(=O)N1CCC(CC#N)(n2cc(C(N)=O)c(Nc3ccccc3)n2)CC1 [Example 30-29, 2,2-dimethylpropyl 4-[4-carbamoyl-3-(phenylamino)-1H-pyrazol-1-yl]-4-(cyanomethyl)piperidine-1-carboxylate] | 8.22 | 6.60 |  | 
25 | N#CCC1(n2cc(C(N)=O)c(Nc3ccccc3)n2)CCN(C(=O)OC2CCCC2)CC1 [Example 30-30, cyclopentyl 4-[4-carbamoyl-3-(phenylamino)-1H-pyrazol-1-yl]-4-(cyanomethyl)piperidine-1-carboxylate] | 9.00 | 7.30 |  | 
26 | N#CCC1(n2cc(C(N)=O)c(Nc3ccccc3)n2)CCN(C(=O)OC2CCCCC2)CC1 [Example 30-31, cyclohexyl 4-[4-carbamoyl-3-(phenylamino)-1H-pyrazol-1-yl]-4-(cyanomethyl)piperidine-1-carboxylate] | 8.10 | 6.50 |  | 
27 | N#CCC1(n2cc(C(N)=O)c(Nc3ccccc3)n2)CCN(C(=O)OCc2cccc(F)c2)CC1 [Example 30-32, 3-fluorobenzyl 4-[4-carbamoyl-3-(phenylamino)-1H-pyrazol-1-yl]-4-(cyanomethyl)piperidine-1-carboxylate] | 8.40 | 7.06 |  | 
28 | N#CCC1(n2cc(C(N)=O)c(Nc3ccccc3)n2)CCN(C(=O)OCc2ccccc2F)CC1 [Example 30-33, 2-fluorobenzyl 4-[4-carbamoyl-3-(phenylamino)-1H-pyrazol-1-yl]-4-(cyanomethyl)piperidine-1-carboxylate] | 8.70 | 7.40 |  | 
29 | N#CCC1(n2cc(C(N)=O)c(Nc3ccccc3)n2)CCN(C(=O)OC2Cc3ccccc3C2)CC1 [Example 30-34, 2,3-dihydro-1H-inden-2-yl 4-[4-carbamoyl-3-(phenylamino)-1H-pyrazol-1-yl]-4-(cyanomethyl)piperidine-1-carboxylate] | 8.52 | 7.08 |  | 
